These are literature values, as cited in patent US20120277309A1, “METHODS OF CONTROLLING VENOUS IRRITATION ASSOCIATED WITH THE TREATMENT OF A CARDIAC DISORDER” (BAXTER HEALTHCARE S.A., priority 2011, published 2012).

Counter-ions that a name gives are not always drawn.

For series [1] the following is noted: packaging insert, Baxter; incidence increases with concentration.
The next series has as its system beta-adrenergic. The settings on record: disclosed in WO 88/01614.

Take `COC(=O)CCc1ccc(OCC(O)CNC(C)C)cc1` (racemic) [R,S-esmolol hydrochloride, methyl-3-[4-(2-hydroxy-3-isopropylamino)propoxy]phenylpropionate hydrochloride]: the “Venous irritation in patients on infusion” value in series [1] is “A significant number of patients experience venous irritation at the infusion site”.

Regarding `COC(=O)CCc1ccc(OC[C@@H](O)CNC(C)C)cc1.Cl` (single isomer, unassigned) [S-isomer of esmolol hydrochloride], the “Potency as a beta-adrenergic-blocking agent relative to an equivalent amount of the racemic mixture” value with beta-adrenergic is “about twice”.
